# Assay: Cytotoxicity against human BEL-7402 cells after 72 hrs by SRB assay
# Assay type: cell-based
# Conditions: Bel-7402, 72 h
row,Compound,IC50
1,C=C(C)C(=O)O[C@@H]1C[C@H](CO)CC/C=C(/CO)C[C@H]2OC(=O)C(=C)[C@H]12,1720 nM
2,C=C(C)C(=O)O[C@@H]1C[C@H](CO)CC/C=C(/C=O)C[C@H]2OC(=O)C(=C)[C@H]12,1500 nM
3,C=C1C(=O)O[C@@H]2C/C(CO)=C\CC[C@@H](CO)C[C@@H](OC(=O)/C(C)=C\C)[C@@H]12,3000 nM
